# Laboratory results taken from US10988462B2, “Pyrazole compounds substituted with heteroaryl and pharmaceutical use thereof” (Japan Tobacco Inc., priority 2018, dated 2021).
# Legend:
# [1] = system: Salmonella typhimurium TA98; assay: Ames test (reverse mutation test), pre-incubation method, strain TA98
# Procedure: (§1) Ames Test (Reverse Mutation Test)
# (§2) Metabolites 1 to 3 and Metabolites A to E were each tested herein. The purpose of this test is to evaluate the potential of each metabolite to induce reverse mutations in the standard strains of Salmonella typhimurium (TA98, TA1537, TA100, and TA1535) and Escherichia coli (WP2uvrA), in either the presence or absence of a rat liver metabolic activation system (S9 mix).
# (§3) The solvent used herein was dimethyl sulfoxide (DMSO, 100 μL/plate).
# (§4) The test was performed by the pre-incubation method with or without S9 mix. When the test was performed without S9 mix, sodium phosphate buffer solution (pH 7.4) was added.
# (§5) 0.5 mL of S9 mix or 0.5 mL of 0.1 mol/L sodium phosphate buffer solution (pH 7.4), and 0.1 mL of the bacterial culture solution were added to a test tube containing 0.1 mL of the negative control formulation (DMSO alone), the metabolite, or the positive control formulation. The mixtures were pre-incubated at 37° C. for 20 minutes while shaking. After the pre-incubation period, 2 mL of top agar were added and the mixtures were vortex-mixed and seeded onto plates. Two plates per treatment were used. Each plate was incubated at 37±1° C. for 48 hours or more and the revertant colonies were counted. The mean number of revertant colonies for each treatment plate was then calculated. The presence or absence of growth inhibition due to any antibacterial effect of the test article and precipitation of the test article was observed grossly or under a stereomicroscope. […] Evaluation was based on mean values with no statistical comparisons being used.
# [2] = system: Salmonella typhimurium TA1537; assay: Ames test (reverse mutation test), pre-incubation method, strain TA1537; type: cell-based
# Procedure: as §1, §2, §3, §4, §5
# [3] = system: Salmonella typhimurium TA100; assay: Ames test (reverse mutation test), pre-incubation method, strain TA100; type: cell-based
# Procedure: as §1, §2, §3, §4, §5
# [4] = system: Salmonella typhimurium TA1535; assay: Ames test (reverse mutation test), pre-incubation method, strain TA1535; type: cell-based
# Procedure: as §1, §2, §3, §4, §5
# Escherichia coli WP2uvrA = assay: Ames test (reverse mutation test), pre-incubation method, strain WP2uvrA; type: cell-based
# Source text: as §1
# Two plates per treatment were used.
smiles,measurement,setting,value
CC(C)(Oc1cc(F)cc(-c2cc(N)nn2-c2cnc(C(F)(F)F)nc2)c1)C(F)(F)F [Metabolite 1],Number of revertant colonies TA98,"[1]; S9 mix +, dose 185 μg/plate",40
same,Number of revertant colonies TA98,"[1]; S9 mix −, dose 21 μg/plate",32
same,Number of revertant colonies TA1537,"[2]; S9 mix +, dose 6.9 μg/plate",13
same,Number of revertant colonies TA1537,"[2]; S9 mix +, dose 21 μg/plate",12
same,Number of revertant colonies TA1537,"[2]; S9 mix +, dose 62 μg/plate",13
same,Number of revertant colonies TA1537,"[2]; S9 mix +, dose 185 μg/plate",13
same,Number of revertant colonies TA1537,"[2]; S9 mix +, dose 556 μg/plate",10
same,Number of revertant colonies TA1537,"[2]; S9 mix +, dose 1667 μg/plate",9
same,Number of revertant colonies TA1537,"[2]; S9 mix +, dose 5000 μg/plate",4
same,Number of revertant colonies TA1537,"[2]; S9 mix −, dose 6.9 μg/plate",8
same,Number of revertant colonies TA1537,"[2]; S9 mix −, dose 21 μg/plate",8
same,Number of revertant colonies TA1537,"[2]; S9 mix −, dose 62 μg/plate",8
same,Number of revertant colonies TA1537,"[2]; S9 mix −, dose 185 μg/plate",9
same,Number of revertant colonies TA1537,"[2]; S9 mix −, dose 556 μg/plate",9
same,Number of revertant colonies TA1537,"[2]; S9 mix −, dose 1667 μg/plate",5
same,Number of revertant colonies TA1537,"[2]; S9 mix −, dose 5000 μg/plate",3
same,Number of revertant colonies TA100,"[3]; S9 mix +, dose 6.9 μg/plate",132
same,Number of revertant colonies TA100,"[3]; S9 mix +, dose 21 μg/plate",132
same,Number of revertant colonies TA100,"[3]; S9 mix +, dose 62 μg/plate",113
same,Number of revertant colonies TA100,"[3]; S9 mix +, dose 185 μg/plate",108
same,Number of revertant colonies TA100,"[3]; S9 mix +, dose 556 μg/plate",128
same,Number of revertant colonies TA100,"[3]; S9 mix +, dose 1667 μg/plate",131
same,Number of revertant colonies TA100,"[3]; S9 mix +, dose 5000 μg/plate",121
same,Number of revertant colonies TA100,"[3]; S9 mix −, dose 6.9 μg/plate",89
same,Number of revertant colonies TA100,"[3]; S9 mix −, dose 21 μg/plate",87
same,Number of revertant colonies TA100,"[3]; S9 mix −, dose 62 μg/plate",87
same,Number of revertant colonies TA100,"[3]; S9 mix −, dose 185 μg/plate",89
same,Number of revertant colonies TA100,"[3]; S9 mix −, dose 556 μg/plate",80
same,Number of revertant colonies TA100,"[3]; S9 mix −, dose 1667 μg/plate",69
same,Number of revertant colonies TA100,"[3]; S9 mix −, dose 5000 μg/plate",47
same,Number of revertant colonies TA1535,"[4]; S9 mix +, dose 6.9 μg/plate",10
same,Number of revertant colonies TA1535,"[4]; S9 mix +, dose 21 μg/plate",8
same,Number of revertant colonies TA1535,"[4]; S9 mix +, dose 62 μg/plate",9
same,Number of revertant colonies TA1535,"[4]; S9 mix +, dose 185 μg/plate",10
same,Number of revertant colonies TA1535,"[4]; S9 mix +, dose 556 μg/plate",9
same,Number of revertant colonies TA1535,"[4]; S9 mix +, dose 1667 μg/plate",10
same,Number of revertant colonies TA1535,"[4]; S9 mix +, dose 5000 μg/plate",7
same,Number of revertant colonies TA1535,"[4]; S9 mix −, dose 6.9 μg/plate",11
same,Number of revertant colonies TA1535,"[4]; S9 mix −, dose 21 μg/plate",10
same,Number of revertant colonies TA1535,"[4]; S9 mix −, dose 62 μg/plate",9
same,Number of revertant colonies TA1535,"[4]; S9 mix −, dose 185 μg/plate",7
same,Number of revertant colonies TA1535,"[4]; S9 mix −, dose 556 μg/plate",9
same,Number of revertant colonies TA1535,"[4]; S9 mix −, dose 1667 μg/plate",5
same,Number of revertant colonies TA1535,"[4]; S9 mix −, dose 5000 μg/plate",7
same,Number of revertant colonies WP2uvrA,"Escherichia coli WP2uvrA; S9 mix +, dose 6.9 μg/plate",18
same,Number of revertant colonies WP2uvrA,"Escherichia coli WP2uvrA; S9 mix +, dose 21 μg/plate",20
same,Number of revertant colonies WP2uvrA,"Escherichia coli WP2uvrA; S9 mix +, dose 62 μg/plate",18
same,Number of revertant colonies WP2uvrA,"Escherichia coli WP2uvrA; S9 mix +, dose 185 μg/plate",16
same,Number of revertant colonies WP2uvrA,"Escherichia coli WP2uvrA; S9 mix +, dose 556 μg/plate",18
same,Number of revertant colonies WP2uvrA,"Escherichia coli WP2uvrA; S9 mix +, dose 1667 μg/plate",14
same,Number of revertant colonies WP2uvrA,"Escherichia coli WP2uvrA; S9 mix +, dose 5000 μg/plate",11
same,Number of revertant colonies WP2uvrA,"Escherichia coli WP2uvrA; S9 mix −, dose 6.9 μg/plate",17
same,Number of revertant colonies WP2uvrA,"Escherichia coli WP2uvrA; S9 mix −, dose 21 μg/plate",19
same,Number of revertant colonies WP2uvrA,"Escherichia coli WP2uvrA; S9 mix −, dose 62 μg/plate",16
same,Number of revertant colonies WP2uvrA,"Escherichia coli WP2uvrA; S9 mix −, dose 185 μg/plate",17
same,Number of revertant colonies WP2uvrA,"Escherichia coli WP2uvrA; S9 mix −, dose 556 μg/plate",18
same,Number of revertant colonies WP2uvrA,"Escherichia coli WP2uvrA; S9 mix −, dose 1667 μg/plate",15
same,Number of revertant colonies WP2uvrA,"Escherichia coli WP2uvrA; S9 mix −, dose 5000 μg/plate",9
